Measurements as given in patent US20080249075A1, “C11 Modified Retrosteroids as Progesterone Receptor Modulator Compounds” (Solvay Pharmaceuticals GmbH, priority 2007, published 2008).

How the values were obtained:
[1] = biological target: T1, human progesterone receptor (Homo sapiens, UniProt P06401); assay: Progesterone receptor binding assay, human PR (CEREP); settings: 3H-R5020 as ligand, MCF7 cells as source of PR
T1 sequence (P06401 679-933 limits assumed): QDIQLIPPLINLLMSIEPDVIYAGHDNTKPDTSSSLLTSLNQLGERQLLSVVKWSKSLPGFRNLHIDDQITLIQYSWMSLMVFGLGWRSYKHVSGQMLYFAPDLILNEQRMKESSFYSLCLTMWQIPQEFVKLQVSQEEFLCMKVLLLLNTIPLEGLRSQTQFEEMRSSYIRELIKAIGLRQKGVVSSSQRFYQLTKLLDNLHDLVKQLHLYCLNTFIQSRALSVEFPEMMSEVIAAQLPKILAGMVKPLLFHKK
Protocol: The progesterone receptor (PR) binding assays were performed at CEREP (Celle I'Evescault, France).
The binding to the human progesterone receptor (Assay Cat No: Progesterone receptor-814h) was be measured using 3H-R5020 as ligand and MCF7 cells as the source of progesterone receptor. The assay is performed as described by Eckert & Katzenellenbogen [1982]. The binding to the bovine progesterone receptor (Assay Cat No: Progesterone receptor-814) was measured using 3H-R5020 as ligand and uterus tissue as the source of progesterone receptor. The assay was performed as described by Hurd & Moudgil [1988].
The results of the receptor binding assay are presented as the individual pKi values, which were determined by measuring the binding activity to the human or bovine PR, as indicated, for a concentration range of each compound.

[2] = test system: T47D human breast carcinoma cells; assay: cells; type: cell-based; settings: for PS [100 nM] (% stimulation): agonistic mode, alkaline phosphatase induction (100% = 1 nM Dydrogesterone); for PS [100 nM] (% stimulation) / PI [100 nM] (% inhibition): compound 100 nM; for PS [100 nM] (% stimulation) / PI [100 nM] (% inhibition) / pIC50: T47D cells; for PI [100 nM] (% inhibition): antagonistic mode, inhibition of alkaline phosphatase induction by 1 nM Dydrogesterone; for pIC50: antagonistic potency against 1 nM Dydrogesterone
Protocol: The progesterone-dependent modulation of alkaline phosphatase expression was examined using T47D human breast carcinoma cells [Keydar et al., 1979]. The assay was performed as previously described by Di Lorenzo et al. (1991) with the modification of using Dydrogesterone as comparative progestin to determine the antagonistic and agonistic activity.
The cell line was purchased from CLS Cell Lines Service (Hildastrasse 21, D-69214 Eppelheim, Germany). In brief, the cells were plated in 96-well plates at 40,000 cells/well using the following growth medium: RPMI 1640 with: 10% FBS, 1 mM Sodium Pyruvat MEM, 10 mM Hepes, 0.01 mg/ml Bovine insulin, and 25 μg/ml Gentamycin. After 24 h of cultivation, the growth medium was replaced with medium containing 2% fetal bovine serum and the test compounds were added to each well to achieve the appropriate compound concentration: For determination of agonistic activity only the test compounds were added; for measurement of antagonistic activity the test compounds and additionally Dydrogesterone as standard progesterone agonist was added to a final concentration of 1 nM. After 48 h of cultivation, the medium was removed and the cells were washed with 200 μl of Dulbecco's phosphate-buffered saline without calcium and magnesium (PBS(−)). Then the cells were fixed with 3.7% formaldehyde in phosphate-buffered saline for 15 min at 22° C. After washing the cells with PBS, 100 μl of a […] (pNPP) solution (pNPP Liquid Substrate System; Sigma) was added to each well and incubated for 2 h at room temperature protected from light. The reaction was stopped with 100 μl 1N NaOH and the absorbance was measured with a spectrophotometer (Victor, Perkin Elmer) at 405 nm. The results are expressed as alkaline phosphatase induction (as 100% with 1 nM Dydrogesterone) or inhibition (against alkaline phosphatase induction by 1 nM Dydrogesterone) at a certain concentration of test compound.
% stimulation=(effect compound−basal)/(effect dydro 1 nM−basal)*100% inhibition of 1 nM Dydro=100*{1-[(effect compound−basal)/(effect dydro 1 nM−basal)]}
For each compound the % inhibition (PI) and % stimulation (PS), respectively, at a compound concentration of 100 nM was determined. For selected compounds, the corresponding values were measured for several different concentrations, and subsequently were plotted against the concentration of the test compound, and used to calculate the IC50 value (for the antagonistic potency; the IC50 value is the concentration (nM), required to reduce the maximal response by 50%) and EC50 values (for the agonistic potency; the EC50 value is the effective concentration (nM) that produced 50% of the maximum response), respectively.

Row | Compound | Human PR binding (pKi) [1] | PS [100 nM] (% stimulation) [2] | PI [100 nM] (% inhibition) [2] | pIC50 [2] | Ki ([1]; read-out: Human PR binding (pKi) (converted)) | activation at 0.1 µM ([2]; Homo sapiens, T47D, 48 h, read-out: PS [100 nM] (% stimulation)) | inhibition at 0.1 µM ([2]; Homo sapiens, T47D, read-out: PI [100 nM] (% inhibition)) | IC50 ([2]; Homo sapiens, T47D, read-out: pIC50 (converted))
1 | CC(=O)[C@H]1CC[C@H]2[C@@H]3C=CC4=CC(=O)CC[C@@]4(C)[C@@H]3C(OC(=O)Nc3ccc4cnn(C)c4c3)C[C@]12C (stereo partly drawn) [compound 99, (1-Methyl-1H-indazol-6-yl)-carbamic acid dydrogesterone-11-yl ester] | 6.3 | 0.0% | 70.0% | 7.1 |  |  |  | 
2 | CC(=O)[C@H]1CC[C@H]2[C@@H]3C=CC4=CC(=O)CC[C@@]4(C)[C@@H]3[C@@H](OC(=O)Nc3ccc4c(c3)N(C)C(=O)CO4)C[C@]12C [compound 101, (4-Methyl-3-oxo-3,4-dihydro-2H-benzo[1,4]oxazin-6-yl)-carbamic acid dydrogesterone-11-yl ester] |  |  |  |  | 316 nM | 0% | 72% | 79.4 nM
3 | CC(=O)[C@H]1CC[C@H]2[C@@H]3C=CC4=CC(=O)CC[C@@]4(C)[C@@H]3C(OC(=O)Nc3ccc4c(c3)NC(=O)C(C)S4)C[C@]12C (stereo partly drawn) [compound 102, (2-Methyl-3-oxo-3,4-dihydro-2H-benzo[1,4]thiazin-6-yl)-carbamic acid dydrogesterone-11-yl ester] | 6.3 | 0.0% | 98.0% | 8.1 |  |  |  | 
